Article PMC7332124, “Design, One Pot Synthesis and Molecular Docking Studies of Substituted-1H-Pyrido[2,1-b] Quinazolines as Apoptosis-Inducing Anticancer Agents” (Asian Pacific Journal of Cancer Prevention : APJCP, 2020)
“Also recorded” adds a separate entry of the source.

Assays:
Assay type in all cases: cell-based, human
A549 [1] = experiment: MTT cytotoxicity assay
Procedure: (§1) Various cancer cells were used to screen anticancer activity of newly synthesized compounds. Lung (A549 and NCI-H460), colon (HCT-15 and HT-29), prostate (DU-145) cancer cells maintained in RPMI-1640 media while normal lung fibroblasts cell line (HFL-1) were maintained in F-12 k medium supplemented with 10% fetal bovine serum (FBS) with 1% antibiotic-antimycotic solution (Sigma). Cells were maintained in 5% CO2 with 98% relative humidity at 37 °C in incubator. When 80-90% of confluency is reached, they were sub-cultured using 0.25% trypsin/1 mM EDTA solution for further passage. The compounds in this series were dissolved in DMSO (1 %) to prepare the stock solution of 10 mM. Further dilutions were made accordingly with respective media to obtain the required concentrations.
(§2) MTT assay measures the reduction of MTT (3-(4,5-dimethylthiazol- 2-yl)-2,5-diphenyl tetrazolium bromide) by mitochondrial succinate dehydrogenase enzyme to insoluble formazan crystals. Since reduction of MTT occurs only in metabolically active cells, the level of activity is the measure of the viability of the cells.(Pordeli et al., 2017). Briefly, cells were plated in 96-well plates at a density of 3,000 to 6,000 cells per well in 100 µl of complete medium and allowed to grow overnight. Then the cells were treated with different concentrations of the synthesized compounds and incubated for 72 h. After the treatment, 100 µl of MTT (0.5 mg/ml) was added and incubated at 37 °C for 4 h. Then MTT reagent was aspirated and formazan crystals formed were dissolved by the addition of 200 µL of DMSO for 20 min at 37 °C. The formazan product quantity was measured by using a spectrophotometric microtiter plate reader (Spectra Max, M4 Molecular devices, USA) at 570 nm wavelength(Nekkanti et al., 2017).

HT-29 [2] = experiment: MTT cytotoxicity assay; conditions: Homo sapiens, HT-29 colorectal cancer, 72 h, read-out: In vitro Inhibitory Concentration (IC50)
Procedure: as §1, §2

HCT-15 [3] = experiment: MTT cytotoxicity assay; conditions: Homo sapiens, HCT-15 colon cancer, 72 h, read-out: In vitro Inhibitory Concentration (IC50)
Procedure: as §1, §2

DU-145 [4] = experiment: MTT cytotoxicity assay; conditions: Homo sapiens, DU-145 prostate cancer, 72 h, read-out: In vitro Inhibitory Concentration (IC50)
Procedure: as §1, §2

[5] = test system: HFL-1 normal lung fibroblasts; experiment: MTT cytotoxicity assay; conditions: Homo sapiens, HFL1, 72 h, read-out: In vitro Inhibitory Concentration (IC50)
Procedure: as §1, §2

NCI-H460 [6] = experiment: MTT cytotoxicity assay; conditions: Homo sapiens, NCI-H460 lung carcinoma, 72 h, read-out: In vitro Inhibitory Concentration (IC50)
Procedure: as §1, §2

A549 [7] = experiment: Cell growth inhibition assay (MTT, day 0 subtracted); conditions: Homo sapiens, 72 h, read-out: In vitro Growth Inhibitory Concentration (GI50)
Procedure: as §1
(§3) Briefly, the cells were seeded on to a 96-well plate in 100 µl of medium. Following 24 h MTT reagent was added in few wells and day 0 absorbance was analyzed, and then cells were treated with compounds and incubated for an additional 72 h. After the treatment, 100 µl of MTT (0.5 mg/ml) was added and incubated at 37 °C for 4 h. Then MTT reagent was suctioned, the insoluble formazan crystals were dissolved in DMSO and formazan product formed is measured at 570 nm wavelength. The day 0 absorbance was subtracted from the 72 h incubated plates and data were plotted as a percentage of untreated control (Dai et al., 2011).

HT-29 [8] = experiment: as above; conditions: Homo sapiens, 72 h, read-out: In vitro Growth Inhibitory Concentration (GI50)
Procedure: as §1, §3

HCT-15 [9] = experiment: as above; conditions: Homo sapiens, 72 h, read-out: In vitro Growth Inhibitory Concentration (GI50)
Procedure: as §1, §3

DU-145 [10] = experiment: as above; conditions: Homo sapiens, 72 h, read-out: In vitro Growth Inhibitory Concentration (GI50)
Procedure: as §1, §3

[11] = test system: HFL-1 normal lung fibroblasts; experiment: as above; conditions: Homo sapiens, HFL1, 72 h, read-out: In vitro Growth Inhibitory Concentration (GI50)
Procedure: as §1, §3

NCI-H460 [12] = experiment: as above; conditions: Homo sapiens, 72 h, read-out: In vitro Growth Inhibitory Concentration (GI50)
Procedure: as §1, §3

A549 cells [13] = experiment: Clonogenic growth inhibition assay; conditions: 1, 2.5 and 5 µM, 7 days
Procedure: The assay mainly tests ability to undergo “unlimited” division by every cell in the population and the hindrance of colony formation by compound 4i was determined in exponentially growing A549 cells by culturing 100-150 cells per well. […] Then, formed colonies were fixed with glutaraldehyde (6.0% v/v), stained with crystal violet (0.5% w/v). The treatment clearly […] the capacity to produce colonies in lung cancer cell population in a concentration dependent manner. […] The total colonies were counted by molecular imaging system Vilber Fusion Fx software and the values were represented as a percent colony forming ability.
Lung cancer cells A549 at exponentially phase were seeded into 12-well culture plates and kept overnight and treated with the compound 4q. Every 2 days the medium was replaced with the fresh medium. After 7 days of incubation, the colonies formed were fixed and stained with 1 % crystal violet in methanol for 3 h. The number of stained colonies were counted under chemdoc imaging system (Vilber Fusion Fx, France). Colony formation was calculated as a percentage to untreated control cultures (Moghaddam et al., 2009).

A549 cells [14] = experiment: Annexin V-FITC/PI apoptosis assay (flow cytometry); conditions: 72 h
Source text: A fundamental part of apoptosis is the flipping of phosphatidyl serine (PS) from the inner surface to the outer surface of the plasma layer of the cells. PS is a component of phospholipid usually located on the cytoplasmic surface of the cell layer in viable cells. When the apoptotic condition is initiated in a cell, PS is no more restricted to the cytosolic region and will flip on the surface of the cell. Translocation of PS is considered to be a hall mark of apoptosis (Zhu et al., 2015). To experimentally address this phenomenon briefly, 1 X 10^5 cells were seeded in a 12-well plate and treated with different concentration of compound 4q and incubated for 72 h. Then untreated and treated cells were harvested and the cells were processed with annexin V-FITC and Propidium Iodide (PI) staining (Bio Legend), according to the manufacturer’s instructions. Further, early/late apoptosis and necrosis parameters were analyzed with quadrant statistics on propidium iodide-negative cells, fluorescein positive cells and propidium iodide-positive cells, respectively.

GI50 (A549 [7]): 2.7 ± 0.18 µM
GI50 (HT-29 [8]): 5.98 ± 0.18 µM
GI50 (HCT-15 [9]): 6.27 ± 0.19 µM
GI50 (DU-145 [10]): 9.64 ± 0.37 µM
GI50 (NCI-H460 [12]): 3.24 ± 0.4 µM
SMILES: C1=CC2=NC3=C(CCCC3)C(c3cn(Cc4ccccc4)c4ccccc34)N2C=C1 (stereo not shown) [Compound 4i, 11-(1-benzyl-1H-indol-3-yl)-2,3,4, 11-tetrahydro-1H-pyrido [2,1-b] quinazoline]
IC50 (A549 [1]; Homo sapiens, A549 adenocarcinoma (lung), MTT, 72 h, read-out: In vitro Inhibitory Concentration (IC50)): 4.57 ± 0.25 µM
selectivity towards the cancer cells (A549 [1]; IC50 in HFL-1 normal fibroblasts versus lung cancer cells): approximately 2 fold
IC50 (HT-29 [2]): 11.57 ± 0.04 µM
IC50 (HCT-15 [3]): 11.3 ± 0.25 µM
IC50 (DU-145 [4]): 9.15 ± 0.09 µM
IC50 [5]: 8.7 ± 0.36 µM
IC50 (NCI-H460 [6]): 5.53 ± 0.49 µM
GI50 [11]: 4.54 ± 0.59 µM
colony formation (A549 cells [13]): Reductions in the number of colonies; also recorded: strong anti-clonogenic effect
percentage of early apoptotic cells (EA; AV+/PI-) (A549 cells [14]; 5 µM, control 4.08 %): 26.90%
apoptosis induction (Annexin V-FITC/PI) (A549 cells [14]; 0.5 to 5 µM): significant early apoptosis
